Assay results from ChEMBL document CHEMBL4831493 (Eur J Med Chem, 2021).
Calls of active or inactive are those of the source. The calls are words filed in the database; no cut-off is given here.

How the values were obtained:
Acetylcholinesterase = Acetylcholinesterase (Homo sapiens, UniProt P22303); experiment: Inhibition of human recombinant AChE preincubated for 1 min in presence of DNTB followed by addition of acetylthiocholine iodide substrate and measured after 20 mins by Ellman's method
[1] = target: Glycogen synthase kinase-3 beta (Homo sapiens, UniProt P49841); experiment: Inhibition of human recombinant N-terminal His-tagged GSK3beta expressed in Escherichia coli using RRRPASVPPSPSLS RHS(pS)HQRR as substrate incubated for 30 mins in presence of ATP by Kinase-Glo reagent based luminescence assay
Chain of Glycogen synthase kinase-3 beta (P49841 whole entry): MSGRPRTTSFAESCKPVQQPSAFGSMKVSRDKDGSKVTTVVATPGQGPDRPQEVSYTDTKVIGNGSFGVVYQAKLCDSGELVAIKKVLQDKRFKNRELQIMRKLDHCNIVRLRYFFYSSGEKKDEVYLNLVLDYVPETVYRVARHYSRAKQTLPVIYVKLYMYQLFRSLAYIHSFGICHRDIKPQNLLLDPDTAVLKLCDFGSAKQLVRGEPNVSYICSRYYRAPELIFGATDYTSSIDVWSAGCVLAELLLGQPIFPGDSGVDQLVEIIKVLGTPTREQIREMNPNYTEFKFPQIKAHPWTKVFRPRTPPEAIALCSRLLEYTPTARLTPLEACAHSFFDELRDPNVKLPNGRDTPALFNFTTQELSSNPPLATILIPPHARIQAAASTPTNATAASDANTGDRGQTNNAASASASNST

Cholinesterase = Cholinesterase (Homo sapiens, UniProt P06276); experiment: Inhibition of BChE (unknown origin)
Chain of Cholinesterase (P06276 whole entry): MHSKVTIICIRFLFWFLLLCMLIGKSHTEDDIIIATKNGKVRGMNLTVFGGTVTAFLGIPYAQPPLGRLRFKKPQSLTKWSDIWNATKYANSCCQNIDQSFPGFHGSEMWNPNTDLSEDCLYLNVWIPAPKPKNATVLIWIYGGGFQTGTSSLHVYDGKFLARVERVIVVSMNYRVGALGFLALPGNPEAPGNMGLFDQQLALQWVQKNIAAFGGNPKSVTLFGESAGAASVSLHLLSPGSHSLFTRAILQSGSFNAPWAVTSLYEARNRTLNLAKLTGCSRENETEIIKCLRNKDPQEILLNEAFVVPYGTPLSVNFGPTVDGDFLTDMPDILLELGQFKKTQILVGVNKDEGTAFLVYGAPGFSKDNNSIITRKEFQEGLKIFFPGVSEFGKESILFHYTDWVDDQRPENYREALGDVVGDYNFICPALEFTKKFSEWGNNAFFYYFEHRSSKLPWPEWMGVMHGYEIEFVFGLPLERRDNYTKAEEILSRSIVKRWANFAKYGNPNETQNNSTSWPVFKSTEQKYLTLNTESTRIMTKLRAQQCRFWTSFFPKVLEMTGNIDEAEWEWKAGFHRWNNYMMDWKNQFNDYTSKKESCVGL

[2] = target: Cyclin-dependent kinase 2 (Homo sapiens) (UniProt P24941); experiment: Inhibition of CDK2 (unknown origin) at 0.3 uM
[3] = target: Cyclin-dependent kinase 6 (Homo sapiens) (UniProt Q00534); experiment: Inhibition of CDK6 (unknown origin) at 0.3 uM
Chain of Cyclin-dependent kinase 6 (Homo sapiens) (Q00534 whole entry): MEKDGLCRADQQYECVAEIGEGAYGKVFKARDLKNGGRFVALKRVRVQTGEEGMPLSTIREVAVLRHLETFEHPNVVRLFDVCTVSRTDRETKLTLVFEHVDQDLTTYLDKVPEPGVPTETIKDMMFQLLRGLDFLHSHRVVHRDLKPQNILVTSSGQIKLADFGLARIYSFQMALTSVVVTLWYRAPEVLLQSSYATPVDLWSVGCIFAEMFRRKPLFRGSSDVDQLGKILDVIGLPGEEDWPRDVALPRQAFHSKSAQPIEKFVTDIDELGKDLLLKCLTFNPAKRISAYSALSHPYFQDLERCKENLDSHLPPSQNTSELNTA

[4] = target: Cyclin-dependent kinase 7 (Homo sapiens) (UniProt P50613); experiment: Inhibition of CDK7 (unknown origin) at 0.3 uM
Chain of Cyclin-dependent kinase 7 (Homo sapiens) (P50613 whole entry): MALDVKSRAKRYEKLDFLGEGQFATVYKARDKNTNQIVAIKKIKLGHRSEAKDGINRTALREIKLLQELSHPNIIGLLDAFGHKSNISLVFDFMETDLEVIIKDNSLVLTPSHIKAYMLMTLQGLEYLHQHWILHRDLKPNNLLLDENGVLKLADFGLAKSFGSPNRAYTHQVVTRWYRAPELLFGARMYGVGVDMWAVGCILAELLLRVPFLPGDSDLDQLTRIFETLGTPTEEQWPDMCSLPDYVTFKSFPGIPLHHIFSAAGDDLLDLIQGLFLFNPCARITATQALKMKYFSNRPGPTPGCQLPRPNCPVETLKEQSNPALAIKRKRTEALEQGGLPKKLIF

[5] = target: Mitogen-activated protein kinase 12 (Homo sapiens) (UniProt P53778); experiment: Inhibition of p38gamma (unknown origin) at 0.3 uM
Chain of Mitogen-activated protein kinase 12 (Homo sapiens) (P53778 whole entry): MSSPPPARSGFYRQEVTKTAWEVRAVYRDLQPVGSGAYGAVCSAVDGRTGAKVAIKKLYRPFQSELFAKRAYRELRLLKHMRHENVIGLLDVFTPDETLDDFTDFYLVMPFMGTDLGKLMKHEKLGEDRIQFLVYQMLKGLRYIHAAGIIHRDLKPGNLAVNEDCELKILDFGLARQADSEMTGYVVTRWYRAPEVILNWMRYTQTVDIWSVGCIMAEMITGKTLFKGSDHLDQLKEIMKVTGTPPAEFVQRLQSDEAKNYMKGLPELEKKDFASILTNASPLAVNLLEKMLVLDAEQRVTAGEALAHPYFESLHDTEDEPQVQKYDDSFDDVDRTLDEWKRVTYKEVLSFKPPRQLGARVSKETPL

[6] = target: Mitogen-activated protein kinase 10 (Homo sapiens) (UniProt P53779); experiment: Inhibition of JNK3 (unknown origin) at 0.3 uM
Chain of Mitogen-activated protein kinase 10 (Homo sapiens) (P53779 whole entry): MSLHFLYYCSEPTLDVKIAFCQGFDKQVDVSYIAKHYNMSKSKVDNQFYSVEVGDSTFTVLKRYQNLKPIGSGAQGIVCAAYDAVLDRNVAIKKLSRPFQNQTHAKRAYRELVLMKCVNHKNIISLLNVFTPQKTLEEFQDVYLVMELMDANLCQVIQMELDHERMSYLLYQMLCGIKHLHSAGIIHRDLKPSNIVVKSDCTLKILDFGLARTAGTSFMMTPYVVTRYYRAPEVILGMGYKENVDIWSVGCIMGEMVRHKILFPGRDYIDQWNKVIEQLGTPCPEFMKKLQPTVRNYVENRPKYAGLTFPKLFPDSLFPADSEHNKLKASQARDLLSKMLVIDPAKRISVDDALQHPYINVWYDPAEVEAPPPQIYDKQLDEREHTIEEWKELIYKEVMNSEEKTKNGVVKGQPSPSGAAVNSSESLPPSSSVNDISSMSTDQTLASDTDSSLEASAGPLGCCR

[7] = Effective permeability of the compound by PAMPA-BBB assay; assay type: ADME; details: read-out: Peff
[8] = Drug level in ICR mouse brain at 10 mg/kg, po measured after 1 hr by LC/MS/MS analysis; assay type: ADME, organism-based; details: read-out: Ct
[9] = Drug level in ICR mouse plasma at 10 mg/kg, po measured after 1 hr by LC/MS/MS analysis; assay type: ADME, organism-based
HT-22 = experiment: Neuroprotective activity in mouse HT-22 cells assessed as glutamate-induced cell mortality at 6 uM preincubated for 1 hr followed by addition of glutamate and measured after 24 hrs (reference value: 58%); assay type: functional; details: time 25 hrs
[10] = Cmax in Sprague-Dawley rat at 1 mg/kg, iv measured up to 24 hrs by LC-MS/MS analysis; assay type: ADME, organism-based; design: route intravenous, dose 1 mg/kg, time <=24; details: in vivo
[11] = Half life in Sprague-Dawley rat at 10 mg/kg, po measured up to 24 hrs by LC-MS/MS analysis; assay type: ADME, organism-based; details: in vivo
Rattus norvegicus = experiment: Neuroprotective activity against amyloid beta (1 to 42)-induced suppression of synaptophysin in Sprague-Dawley rat at 5 mg/kg/day, po measured after 5 days by immunohistochemistry assay; assay type: functional, organism-based; details: time 5.0 day
Mus musculus [12] = experiment: Cognitive enhancing effect in mouse model of scopolamine-induced amnesia assessed as escape latency time at 10 mg/kg/day, po measured by Morris water maze test (reference value: 17.9 sec); assay type: functional
Mus musculus [13] = experiment: Improvement in learning and spatial memory in amyloid beta (1 to 42)-induced mouse model of Alzheimer's disease assessed as increase in spontaneous alteration at 10 mg/kg/day, po pretreated with amyloid beta42 for 3 days followed by treatment with compound and measured after 9 days measured by Y-maze test; assay type: functional, organism-based; details: time 9.0 day
[14] = Toxicity in amyloid beta (1 to 42)-induced mouse model of Alzheimer's disease assessed as changes in body weight at 10 mg/kg/day, po measured after 9 days; assay type: organism-based; details: in vivo, 216 h, time 9 day
[15] = target: T1, Acetylcholinesterase (Mus musculus) (UniProt P21836); details: ICR, dose 10.0 mg/kg, time 1.5 hrs
T1 sequence (whole entry): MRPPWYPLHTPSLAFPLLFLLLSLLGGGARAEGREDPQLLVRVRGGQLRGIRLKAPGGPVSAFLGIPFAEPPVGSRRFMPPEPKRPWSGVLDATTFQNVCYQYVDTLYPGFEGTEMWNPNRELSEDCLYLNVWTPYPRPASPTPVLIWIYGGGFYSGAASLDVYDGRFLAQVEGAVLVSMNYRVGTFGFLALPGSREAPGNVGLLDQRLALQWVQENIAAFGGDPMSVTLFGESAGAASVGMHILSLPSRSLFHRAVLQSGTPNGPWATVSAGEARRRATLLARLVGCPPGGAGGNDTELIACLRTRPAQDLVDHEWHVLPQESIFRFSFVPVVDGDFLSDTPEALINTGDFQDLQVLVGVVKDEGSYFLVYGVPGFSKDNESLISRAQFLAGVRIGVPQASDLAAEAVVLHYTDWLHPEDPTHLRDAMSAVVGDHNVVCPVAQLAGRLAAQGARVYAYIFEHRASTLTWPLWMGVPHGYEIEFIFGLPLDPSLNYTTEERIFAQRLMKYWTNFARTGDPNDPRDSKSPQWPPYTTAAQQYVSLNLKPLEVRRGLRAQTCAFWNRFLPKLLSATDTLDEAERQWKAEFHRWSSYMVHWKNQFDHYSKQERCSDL

Chain of Acetylcholinesterase (P22303 whole entry): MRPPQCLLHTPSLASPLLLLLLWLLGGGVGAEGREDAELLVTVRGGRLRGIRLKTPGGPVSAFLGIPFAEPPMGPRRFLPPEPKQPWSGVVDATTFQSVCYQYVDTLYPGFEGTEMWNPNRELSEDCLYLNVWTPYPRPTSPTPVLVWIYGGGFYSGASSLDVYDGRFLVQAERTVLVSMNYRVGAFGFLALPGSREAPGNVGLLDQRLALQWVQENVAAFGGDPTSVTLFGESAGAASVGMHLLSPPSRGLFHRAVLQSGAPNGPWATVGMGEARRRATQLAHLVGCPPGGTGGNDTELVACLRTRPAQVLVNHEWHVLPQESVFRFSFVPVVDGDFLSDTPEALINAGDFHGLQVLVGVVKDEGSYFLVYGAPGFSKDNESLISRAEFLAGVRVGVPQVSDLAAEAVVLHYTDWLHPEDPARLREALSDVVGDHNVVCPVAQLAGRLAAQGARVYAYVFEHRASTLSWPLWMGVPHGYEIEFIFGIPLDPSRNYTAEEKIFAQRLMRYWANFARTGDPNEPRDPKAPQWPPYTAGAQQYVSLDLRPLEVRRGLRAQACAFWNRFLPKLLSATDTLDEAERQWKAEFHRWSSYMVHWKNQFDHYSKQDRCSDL

Compound `O=C(Nc1cncc(OCC2CCN(Cc3ccc(F)cc3)CC2)c1)c1ccnc(NC(=O)C2CC2)c1` has an IC50 (Acetylcholinesterase) of 1 nM, an IC50 [1] of 31 nM and an IC50 (Cholinesterase) of 5300 nM. The inhibition [2] was “inactive”, the inhibition [3] was “inactive” and the inhibition [4] was “inactive”. For the same compound, the inhibition [5] was “inactive”, the inhibition [6] was “inactive” and the Papp [7] was 10.5 ×10⁻⁶ cm/s. It also gave a concentration at 1 h [8] of 62 ng/g, a concentration at 1 h [9] of 405 ng/g and an Activity (HT-22) of 66%. For the same compound, the Cmax [10] was 200 ng/mL, the half-life [11] was 7.6 h and the Activity (Rattus norvegicus) was “Active”. The Time (Mus musculus [12]) was 18.1 s, the Activity (Mus musculus [13]) was “Active” and the Activity [14] was “Non-Toxic”. The inhibition [15] was 85.5%.
